According to PubChem BioAssay AID2060331 (Molecular Pharmacology Branch, DTP, NCI, 2025):

Tested on: Hs578T multi-cell spheroids, viability
Test: Anticancer human tumor Hs578T cell line growth inhibition [IpAb];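 also: drug exposure lasted 7 days before readout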
Conditions: for IC50: curve of first compound; for viability, T/C: stronger effect = lower value
In short: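 Multi-cell spheroids of 60% tumour cells, 25% HUVEC and 15% MSC in ultra-low-attachment U-bottom wells, treated with agents combined with ipatasertib or abemaciclib. Half-log ranges top out near clinical Cmax, or 10 microM when Cmax is unknown.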

[1] = second compound 0.1 µM, first compound 0.0316 µM
[2] = second compound 0.1 µM, first compound 0.1 µM
[3] = second compound 0.316 µM, first compound 0.0316 µM
[4] = second compound 0.316 µM, first compound 0.1 µM
[5] = second compound 1 µM, first compound 0.0316 µM
[6] = second compound 1 µM, first compound 0.1 µM
[7] = second compound 3.16 µM, first compound 0.0316 µM
[8] = second compound 3.16 µM, first compound 0.1 µM
[9] = second compound 10 µM, first compound 0.0316 µM
[10] = second compound 10 µM, first compound 0.1 µM

SMILES: C=CC(=O)N1CCN(c2nc(=O)n(-c3c(C)ccnc3C(C)C)c3nc(-c4c(O)cccc4F)c(F)cc23)C(C)C1 (stereo not given) + CC(C)NCC(C(=O)N1CCN(c2ncnc3c2C(C)CC3O)CC1)c1ccc(Cl)cc1
- IC50 (second compound 0.1 µM): > 10000 nM
- IC50 (second compound 0.316 µM): > 10000 nM
- IC50 (second compound 1 µM): > 10000 nM
- IC50 (second compound 3.16 µM): 3950 nM
- IC50 (second compound 10 µM): < 31.6 nM
- viability, T/C [1]: 94.2%
- viability, T/C [2]: 103%
- viability, T/C (second compound 0.1 µM, first compound 0.316 µM): 102%
- viability, T/C (second compound 0.1 µM, first compound 1 µM): 112%
- viability, T/C (second compound 0.1 µM, first compound 3.16 µM): 94.4%
- viability, T/C (second compound 0.1 µM, first compound 10 µM): 72%
- viability, T/C [3]: 83.7%
- viability, T/C [4]: 90.6%
- viability, T/C (second compound 0.316 µM, first compound 0.316 µM): 90.1%
- viability, T/C (second compound 0.316 µM, first compound 1 µM): 89.5%
- viability, T/C (second compound 0.316 µM, first compound 3.16 µM): 84%
- viability, T/C (second compound 0.316 µM, first compound 10 µM): 65.5%
- viability, T/C [5]: 70.8%
- viability, T/C [6]: 70.9%
- viability, T/C (second compound 1 µM, first compound 0.316 µM): 69.3%
- viability, T/C (second compound 1 µM, first compound 1 µM): 75.1%
- viability, T/C (second compound 1 µM, first compound 3.16 µM): 66.2%
- viability, T/C (second compound 1 µM, first compound 10 µM): 55.1%
- viability, T/C [7]: 56.7%
- viability, T/C [8]: 59.6%
- viability, T/C (second compound 3.16 µM, first compound 0.316 µM): 55.1%
- viability, T/C (second compound 3.16 µM, first compound 1 µM): 54.5%
- viability, T/C (second compound 3.16 µM, first compound 3.16 µM): 52.8%
- viability, T/C (second compound 3.16 µM, first compound 10 µM): 41.9%
- viability, T/C [9]: 45.1%
- viability, T/C [10]: 50.4%
- viability, T/C (second compound 10 µM, first compound 0.316 µM): 46.9%
- viability, T/C (second compound 10 µM, first compound 1 µM): 49.1%
- viability, T/C (second compound 10 µM, first compound 3.16 µM): 46.5%
- viability, T/C (second compound 10 µM, first compound 10 µM): 20.4%

SMILES: CC(C)(C)c1cnc(CSc2cnc(NC(=O)C3CCNCC3)s2)o1 + CC(C)NCC(C(=O)N1CCN(c2ncnc3c2C(C)CC3O)CC1)c1ccc(Cl)cc1
- IC50 (second compound 0.1 µM): 180 nM
- IC50 (second compound 0.316 µM): 173 nM
- IC50 (second compound 1 µM): 156 nM
- IC50 (second compound 3.16 µM): 108 nM
- IC50 (second compound 10 µM): 33.3 nM
- viability, T/C (second compound 0.1 µM, first compound 0.00949 µM): 104%
- viability, T/C (second compound 0.1 µM, first compound 0.03 µM): 114%
- viability, T/C (second compound 0.1 µM, first compound 0.0949 µM): 109%
- viability, T/C (second compound 0.1 µM, first compound 0.3 µM): 2.64%
- viability, T/C (second compound 0.1 µM, first compound 0.949 µM): 2.52%
- viability, T/C (second compound 0.1 µM, first compound 3 µM): 3.3%
- viability, T/C (second compound 0.316 µM, first compound 0.00949 µM): 93.5%
- viability, T/C (second compound 0.316 µM, first compound 0.03 µM): 104%
- viability, T/C (second compound 0.316 µM, first compound 0.0949 µM): 107%
- viability, T/C (second compound 0.316 µM, first compound 0.3 µM): 2.26%
- viability, T/C (second compound 0.316 µM, first compound 0.949 µM): 2.29%
- viability, T/C (second compound 0.316 µM, first compound 3 µM): 2.23%
- viability, T/C (second compound 1 µM, first compound 0.00949 µM): 80.7%
- viability, T/C (second compound 1 µM, first compound 0.03 µM): 88.7%
- viability, T/C (second compound 1 µM, first compound 0.0949 µM): 89.5%
- viability, T/C (second compound 1 µM, first compound 0.3 µM): 2.31%
- viability, T/C (second compound 1 µM, first compound 0.949 µM): 2.45%
- viability, T/C (second compound 1 µM, first compound 3 µM): 2.32%
- viability, T/C (second compound 3.16 µM, first compound 0.00949 µM): 60.5%
- viability, T/C (second compound 3.16 µM, first compound 0.03 µM): 69.6%
- viability, T/C (second compound 3.16 µM, first compound 0.0949 µM): 56.1%
- viability, T/C (second compound 3.16 µM, first compound 0.3 µM): 2.25%
- viability, T/C (second compound 3.16 µM, first compound 0.949 µM): 3.36%
- viability, T/C (second compound 3.16 µM, first compound 3 µM): 3.32%
- viability, T/C (second compound 10 µM, first compound 0.00949 µM): 49.3%
- viability, T/C (second compound 10 µM, first compound 0.03 µM): 57.7%
- viability, T/C (second compound 10 µM, first compound 0.0949 µM): 14.8%
- viability, T/C (second compound 10 µM, first compound 0.3 µM): 1.74%
- viability, T/C (second compound 10 µM, first compound 0.949 µM): 2.09%
- viability, T/C (second compound 10 µM, first compound 3 µM): 2.94%

SMILES: Cn1ncnc1[C@H]1c2n[nH]c(=O)c3cc(F)cc(c23)N[C@@H]1c1ccc(F)cc1 + CC(C)NCC(C(=O)N1CCN(c2ncnc3c2C(C)CC3O)CC1)c1ccc(Cl)cc1
- IC50 (second compound 0.1 µM): > 100 nM
- IC50 (second compound 0.316 µM): > 100 nM
- IC50 (second compound 1 µM): > 100 nM
- IC50 (second compound 3.16 µM): 0.553 nM
- IC50 (second compound 10 µM): < 0.316 nM
- viability, T/C (second compound 0.1 µM, first compound 0.000316 µM): 97.6%
- viability, T/C (second compound 0.1 µM, first compound 0.001 µM): 95.3%
- viability, T/C (second compound 0.1 µM, first compound 0.00316 µM): 87.9%
- viability, T/C (second compound 0.1 µM, first compound 0.01 µM): 88.2%
- viability, T/C [1]: 82.8%
- viability, T/C [2]: 82.3%
- viability, T/C (second compound 0.316 µM, first compound 0.000316 µM): 80.7%
- viability, T/C (second compound 0.316 µM, first compound 0.001 µM): 79.5%
- viability, T/C (second compound 0.316 µM, first compound 0.00316 µM): 79.9%
- viability, T/C (second compound 0.316 µM, first compound 0.01 µM): 71.7%
- viability, T/C [3]: 75.5%
- viability, T/C [4]: 65.9%
- viability, T/C (second compound 1 µM, first compound 0.000316 µM): 66.1%
- viability, T/C (second compound 1 µM, first compound 0.001 µM): 61.3%
- viability, T/C (second compound 1 µM, first compound 0.00316 µM): 62.6%
- viability, T/C (second compound 1 µM, first compound 0.01 µM): 60%
- viability, T/C [5]: 58.6%
- viability, T/C [6]: 55.1%
- viability, T/C (second compound 3.16 µM, first compound 0.000316 µM): 49.7%
- viability, T/C (second compound 3.16 µM, first compound 0.001 µM): 49.4%
- viability, T/C (second compound 3.16 µM, first compound 0.00316 µM): 50.5%
- viability, T/C (second compound 3.16 µM, first compound 0.01 µM): 48.3%
- viability, T/C [7]: 44.9%
- viability, T/C [8]: 42.3%
- viability, T/C (second compound 10 µM, first compound 0.000316 µM): 46.1%
- viability, T/C (second compound 10 µM, first compound 0.001 µM): 42.9%
- viability, T/C (second compound 10 µM, first compound 0.00316 µM): 44.9%
- viability, T/C (second compound 10 µM, first compound 0.01 µM): 40.6%
- viability, T/C [9]: 43.3%
- viability, T/C [10]: 38.6%
